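Assay format: 96-well plates, 48-hour exposure. Here, GI50 denotes the concentration required for 50% inhibition of growth.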 Active and inactive are the calls of the source. Rule as the data show it: active = GI50 up to about 1.1 µM and inactive = higher.
Key:
Experiment in all cases: growth of human tumour cells (NCI), 48 h
[1] = system: NCI-H522
[2] = system: UACC-62
[3] = system: SNB-75
[4] = system: MDA-N
[5] = system: NCI-H23
[6] = system: HCC 2998
[7] = system: OVCAR-4
[8] = system: Hs-578T
[9] = system: MOLT-4
[10] = system: MDA-MB-231
[11] = system: NCI-H226
[12] = system: MCF7
[13] = system: EKVX
[14] = system: OVCAR-5
[15] = system: Malme-3M
[16] = system: SF-539
[17] = system: 786-0
[18] = system: HOP-62
[19] = system: SF-268
[20] = system: SR

SMILES | GI50 [1] | GI50 [2] | GI50 [3] | GI50 [4] | GI50 [5] | GI50 [6] | GI50 [7] | GI50 [8] | GI50 [9] | GI50 [10] | GI50 [11] | GI50 [12] | GI50 [13] | GI50 [14] | GI50 [15] | GI50 [16] | GI50 [17] | GI50 [18] | GI50 [19] | GI50 [20]
C=C(C)C1CC2=C(O1)C(=O)c1cccc(O)c1C2=O (stereo unspecified) | 0.378 µM (active) | 0.883 µM (active) | 2.29 µM (inactive) | 0.064 µM (active) | 0.244 µM (active) | 1.99 µM (inactive) | 0.327 µM (active) | 1.16 µM (inactive) | 0.2 µM (active) | 1.82 µM (inactive) | 1.78 µM (inactive) | 0.586 µM (active) | 1.17 µM (inactive) | 1.57 µM (inactive) | 1.08 µM (active) | 0.671 µM (active) | 9.12 µM (inactive) | 1.57 µM (inactive) | 0.333 µM (active) | –
Cc1ccc(/N=N/c2c(O)ccc3ccccc23)c(C)c1 | – | > 100 µM (inactive) | > 100 µM (inactive) | > 100 µM (inactive) | > 100 µM (inactive) | – | > 100 µM (inactive) | > 100 µM (inactive) | > 100 µM (inactive) | > 100 µM (inactive) | > 100 µM (inactive) | – | – | > 100 µM (inactive) | – | – | > 100 µM (inactive) | > 100 µM (inactive) | > 100 µM (inactive) | –
O=C(/C=C/C(Cl)(Cl)Cl)Nc1ccc(Cl)cc1 | 0.514 µM (active) | 7.64 µM (inactive) | 3.69 µM (inactive) | 3.44 µM (inactive) | 3.36 µM (inactive) | 6.44 µM (inactive) | 1.82 µM (inactive) | 25.4 µM (inactive) | 1.64 µM (inactive) | 2.49 µM (inactive) | 15.1 µM (inactive) | 17.5 µM (inactive) | 5.02 µM (inactive) | 13.5 µM (inactive) | 5.37 µM (inactive) | 1.99 µM (inactive) | 1.55 µM (inactive) | 4.94 µM (inactive) | 3.23 µM (inactive) | –
CCCc1c(Cl)nc(Cl)nc1Cl | – | 0.822 µM (active) | 9.18 µM (inactive) | 0.211 µM (active) | 0.428 µM (active) | 5.55 µM (inactive) | 10.2 µM (inactive) | 3.52 µM (inactive) | 0.0429 µM (active) | 0.425 µM (active) | 0.0222 µM (active) | 1.73 µM (inactive) | > 10 µM (inactive) | 1.54 µM (inactive) | < 0.0208 µM (active) | 2.54 µM (inactive) | 0.247 µM (active) | 2.43 µM (inactive) | 1.29 µM (inactive) | –
O=[N+]([O-])C(C(Cl)=C(Cl)Cl)=C(n1cncn1)n1cncn1 | 14 µM (inactive) | 39.9 µM (inactive) | > 44.2 µM (inactive) | – | 25.6 µM (inactive) | > 58.3 µM (inactive) | 24.4 µM (inactive) | 27 µM (inactive) | > 33 µM (inactive) | 19.5 µM (inactive) | > 100 µM (inactive) | 25.6 µM (inactive) | 24.3 µM (inactive) | 15.6 µM (inactive) | 16.4 µM (inactive) | 19 µM (inactive) | 18.6 µM (inactive) | > 75.2 µM (inactive) | 17.1 µM (inactive) | 31.2 µM (inactive)
CC[C@]1(Cc2ccc(OC)c(OC)c2)C=[N+]([O-])O[C@H](OC2CCCCC2c2ccccc2)[C@@H]1OC(C)=O (stereo partly specified) | 25.6 µM (inactive) | 56.1 µM (inactive) | 32.2 µM (inactive) | 53.5 µM (inactive) | 56.1 µM (inactive) | 43.5 µM (inactive) | 33 µM (inactive) | – | 17.3 µM (inactive) | 75.3 µM (inactive) | 32.5 µM (inactive) | 28.8 µM (inactive) | 46.7 µM (inactive) | > 100 µM (inactive) | 52.8 µM (inactive) | – | 45.3 µM (inactive) | 64.6 µM (inactive) | – | 22.8 µM (inactive)
N#Cc1c2c(c(N3CCOCC3)n3c1nc1ccccc13)CCCC2 | 16.3 µM (inactive) | 22.3 µM (inactive) | – | 18.4 µM (inactive) | 19.5 µM (inactive) | 21.8 µM (inactive) | 20 µM (inactive) | > 100 µM (inactive) | 8.81 µM (inactive) | 21.3 µM (inactive) | 14 µM (inactive) | 26.2 µM (inactive) | 16.2 µM (inactive) | 21.1 µM (inactive) | 17.7 µM (inactive) | 19.1 µM (inactive) | 16.3 µM (inactive) | – | > 100 µM (inactive) | –
Brc1ccc(-c2nc(-c3ccc(Br)cc3)n(-c3ccccc3)n2)cc1 | 39 µM (inactive) | > 100 µM (inactive) | 54.3 µM (inactive) | > 100 µM (inactive) | > 100 µM (inactive) | – | > 100 µM (inactive) | > 100 µM (inactive) | 53.7 µM (inactive) | > 100 µM (inactive) | > 100 µM (inactive) | > 100 µM (inactive) | 85.5 µM (inactive) | > 100 µM (inactive) | – | > 100 µM (inactive) | > 100 µM (inactive) | > 100 µM (inactive) | > 100 µM (inactive) | –
COc1c(OC)c(OC)c(C(=O)/C=C/c2ccccc2)c(OC)c1OC | 3.12 µM (inactive) | 6.87 µM (inactive) | 8.91 µM (inactive) | 5.51 µM (inactive) | 11 µM (inactive) | 14.7 µM (inactive) | 5.97 µM (inactive) | 4.32 µM (inactive) | 8.83 µM (inactive) | 14.5 µM (inactive) | 8.05 µM (inactive) | 5.82 µM (inactive) | 13.9 µM (inactive) | 16.5 µM (inactive) | 10.1 µM (inactive) | 9.02 µM (inactive) | 9.29 µM (inactive) | – | 3.69 µM (inactive) | –
CN(C)c1ccc(/C=N/NC(=O)c2cnc3ccccc3c2)cc1 | 18.1 µM (inactive) | > 100 µM (inactive) | 21.9 µM (inactive) | 4.71 µM (inactive) | > 100 µM (inactive) | 42.1 µM (inactive) | > 100 µM (inactive) | 25.5 µM (inactive) | – | 37.8 µM (inactive) | > 100 µM (inactive) | > 100 µM (inactive) | 58.6 µM (inactive) | > 100 µM (inactive) | 18.6 µM (inactive) | 52 µM (inactive) | 78.5 µM (inactive) | 35.5 µM (inactive) | 18 µM (inactive) | –
CN1CCN(/C(N)=C(\C#N)C(=O)Nc2ccccc2)CC1 | – | > 100 µM (inactive) | > 100 µM (inactive) | > 100 µM (inactive) | > 100 µM (inactive) | > 100 µM (inactive) | – | – | > 100 µM (inactive) | – | > 100 µM (inactive) | > 100 µM (inactive) | > 100 µM (inactive) | > 100 µM (inactive) | – | > 100 µM (inactive) | > 100 µM (inactive) | > 100 µM (inactive) | – | > 100 µM (inactive)
OCC1C2CCC3(OCCO3)C12 (stereo unspecified) | > 100 µM (inactive) | 17.6 µM (inactive) | > 100 µM (inactive) | > 100 µM (inactive) | 18.2 µM (inactive) | > 100 µM (inactive) | > 100 µM (inactive) | – | > 100 µM (inactive) | > 100 µM (inactive) | > 100 µM (inactive) | > 100 µM (inactive) | > 100 µM (inactive) | > 100 µM (inactive) | 57.3 µM (inactive) | > 100 µM (inactive) | > 100 µM (inactive) | > 100 µM (inactive) | > 100 µM (inactive) | > 100 µM (inactive)
COc1ccc(CCNC(=O)[C@H]2CCCC[C@@H]2CCO)cc1OC | > 100 µM (inactive) | > 100 µM (inactive) | 88.7 µM (inactive) | – | > 100 µM (inactive) | > 100 µM (inactive) | > 100 µM (inactive) | > 100 µM (inactive) | > 100 µM (inactive) | > 100 µM (inactive) | > 100 µM (inactive) | > 100 µM (inactive) | > 100 µM (inactive) | > 100 µM (inactive) | – | > 100 µM (inactive) | > 100 µM (inactive) | > 100 µM (inactive) | > 100 µM (inactive) | > 100 µM (inactive)
O=C(c1cccs1)c1nccc2c1cnc1ccccc12 | – | > 100 µM (inactive) | 43.7 µM (inactive) | – | 92.7 µM (inactive) | > 100 µM (inactive) | > 100 µM (inactive) | 94.6 µM (inactive) | > 100 µM (inactive) | > 100 µM (inactive) | > 100 µM (inactive) | 20.3 µM (inactive) | > 100 µM (inactive) | > 100 µM (inactive) | > 100 µM (inactive) | > 100 µM (inactive) | 68.5 µM (inactive) | 28.7 µM (inactive) | 26.2 µM (inactive) | > 100 µM (inactive)
O=[N+]([O-])c1ccc(C2Nn3c(nnc3-c3cccc([N+](=O)[O-])c3)S2)cc1 (stereo unspecified) | > 100 µM (inactive) | > 100 µM (inactive) | > 100 µM (inactive) | – | > 100 µM (inactive) | > 100 µM (inactive) | > 100 µM (inactive) | > 100 µM (inactive) | 37.8 µM (inactive) | > 100 µM (inactive) | 0.0735 µM (active) | 44.3 µM (inactive) | > 100 µM (inactive) | > 100 µM (inactive) | > 100 µM (inactive) | 9.08 µM (inactive) | > 100 µM (inactive) | > 100 µM (inactive) | > 100 µM (inactive) | 84.1 µM (inactive)
COC(=O)C1CCC(=O)N1C(c1ccccc1)c1cc(OC)c(OC)c(OC)c1 (stereo unspecified) | 40.2 µM (inactive) | 60.5 µM (inactive) | – | 21.8 µM (inactive) | 62.4 µM (inactive) | > 100 µM (inactive) | 49.7 µM (inactive) | – | 31.8 µM (inactive) | 41.3 µM (inactive) | > 100 µM (inactive) | 67.9 µM (inactive) | 91 µM (inactive) | > 100 µM (inactive) | 61.1 µM (inactive) | 69.5 µM (inactive) | > 100 µM (inactive) | > 100 µM (inactive) | > 100 µM (inactive) | 50.9 µM (inactive)

Reference: ChEMBL document CHEMBL1201862, “PubChem BioAssay data set” (2004)
